#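 Five compound concentrations were applied to cells in 96-well plates for 48 hours; endpoints were derived by simple linear interpolation of the resulting dose-response curve. GI50: concentration for 50% inhibition of growth. Definition used: TGI = concentration required for complete inhibition of growth.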
# Key:
# Test in all cases: DTP human tumour cell line panel, 48 h
# SR leukemia = system: SR leukemia
# A549 NSCLC = system: A549 NSCLC
# OVCAR-3 ovarian = system: OVCAR-3 ovarian
# K-562 leukemia = system: K-562 leukemia
# OVCAR-5 ovarian = system: OVCAR-5 ovarian
# NCI-H460 lung = system: NCI-H460 lung
# MALME-3M melanoma = system: MALME-3M melanoma
# SK-MEL-28 melanoma = system: SK-MEL-28 melanoma
# HOP-62 NSCLC = system: HOP-62 NSCLC
# SF-539 CNS = system: SF-539 CNS
# SNB-19 CNS = system: SNB-19 CNS
# OVCAR-8 ovarian = system: OVCAR-8 ovarian
# HCT-15 colon = system: HCT-15 colon
# SW-620 colon = system: SW-620 colon
# SK-MEL-2 melanoma = system: SK-MEL-2 melanoma
# EKVX NSCLC = system: EKVX NSCLC
# NCI-H522 lung = system: NCI-H522 lung
# HCC-2998 colon = system: HCC-2998 colon
# M14 melanoma = system: M14 melanoma
# MOLT-4 leukemia = system: MOLT-4 leukemia
# HCT-116 colon = system: HCT-116 colon
# PC-3 prostate = system: PC-3 prostate
# NCI-H23 lung = system: NCI-H23 lung
# SK-MEL-5 melanoma = system: SK-MEL-5 melanoma
# MDA-MB-435 = system: MDA-MB-435
# HT29 colon = system: HT29 colon
# NCI-H226 lung = system: NCI-H226 lung
# CCRF-CEM leukemia = system: CCRF-CEM leukemia
# SF-268 CNS = system: SF-268 CNS
# 786-0 renal = system: 786-0 renal
# CAKI-1 renal = system: CAKI-1 renal
# RXF 393 renal = system: RXF 393 renal
# SN12C renal = system: SN12C renal
# UO-31 renal = system: UO-31 renal
# UACC-62 melanoma = system: UACC-62 melanoma
# UACC-257 melanoma = system: UACC-257 melanoma
# ACHN renal = system: ACHN renal
# IGROV1 ovarian = system: IGROV1 ovarian
# NCI/ADR-RES ovarian = system: NCI/ADR-RES ovarian
# A498 renal = system: A498 renal
# BT-549 breast = system: BT-549 breast
# HOP-92 NSCLC = system: HOP-92 NSCLC
# SNB-75 CNS = system: SNB-75 CNS
# SK-OV-3 ovarian = system: SK-OV-3 ovarian
# RPMI-8226 leukemia = system: RPMI-8226 leukemia
# U251 CNS = system: U251 CNS
# COLO 205 colon = system: COLO 205 colon
# T-47D breast = system: T-47D breast
# HS 578T breast = system: HS 578T breast
# MCF7 breast = system: MCF7 breast
# KM12 colon = system: KM12 colon
# HL-60(TB) leukemia = system: HL-60(TB) leukemia
# DU-145 prostate = system: DU-145 prostate
# TK-10 renal = system: TK-10 renal
# OVCAR-4 ovarian = system: OVCAR-4 ovarian
# SF-295 CNS = system: SF-295 CNS
# MDA-MB-231 breast = system: MDA-MB-231 breast
# LOX IMVI melanoma = system: LOX IMVI melanoma
smiles,measurement,setting,value
NS(=O)(=O)c1ccc(Nc2ncc(-c3ccccc3)o2)cc1,GI50,SR leukemia,9.69 µM
same,TGI,SR leukemia,> 25 µM
same,GI50,A549 NSCLC,> 25 µM
same,TGI,A549 NSCLC,> 25 µM
same,GI50,OVCAR-3 ovarian,> 25 µM
same,TGI,OVCAR-3 ovarian,> 25 µM
same,GI50,K-562 leukemia,> 25 µM
same,TGI,K-562 leukemia,> 25 µM
same,GI50,OVCAR-5 ovarian,> 25 µM
same,TGI,OVCAR-5 ovarian,> 25 µM
same,GI50,NCI-H460 lung,> 25 µM
same,TGI,NCI-H460 lung,> 25 µM
same,GI50,MALME-3M melanoma,> 25 µM
same,TGI,MALME-3M melanoma,> 25 µM
same,GI50,SK-MEL-28 melanoma,> 25 µM
same,TGI,SK-MEL-28 melanoma,> 25 µM
same,GI50,HOP-62 NSCLC,> 25 µM
same,TGI,HOP-62 NSCLC,> 25 µM
same,GI50,SF-539 CNS,> 22.9 µM
same,TGI,SF-539 CNS,> 25 µM
same,GI50,SNB-19 CNS,> 25 µM
same,TGI,SNB-19 CNS,> 25 µM
same,GI50,OVCAR-8 ovarian,> 25 µM
same,TGI,OVCAR-8 ovarian,> 25 µM
same,GI50,HCT-15 colon,> 25 µM
same,TGI,HCT-15 colon,> 25 µM
same,GI50,SW-620 colon,> 22.1 µM
same,TGI,SW-620 colon,> 25 µM
same,GI50,SK-MEL-2 melanoma,> 25 µM
same,TGI,SK-MEL-2 melanoma,> 25 µM
same,GI50,EKVX NSCLC,> 25 µM
same,TGI,EKVX NSCLC,> 25 µM
same,GI50,NCI-H522 lung,> 25 µM
same,TGI,NCI-H522 lung,> 25 µM
same,GI50,HCC-2998 colon,> 25 µM
same,TGI,HCC-2998 colon,> 25 µM
same,GI50,M14 melanoma,> 25 µM
same,TGI,M14 melanoma,> 25 µM
same,GI50,MOLT-4 leukemia,> 25 µM
same,TGI,MOLT-4 leukemia,> 25 µM
same,GI50,HCT-116 colon,> 25 µM
same,TGI,HCT-116 colon,> 25 µM
same,GI50,PC-3 prostate,> 25 µM
same,TGI,PC-3 prostate,> 25 µM
same,GI50,NCI-H23 lung,> 25 µM
same,TGI,NCI-H23 lung,> 25 µM
same,GI50,SK-MEL-5 melanoma,> 25 µM
same,TGI,SK-MEL-5 melanoma,> 25 µM
same,GI50,MDA-MB-435,> 25 µM
same,TGI,MDA-MB-435,> 25 µM
same,GI50,HT29 colon,> 25 µM
same,TGI,HT29 colon,> 25 µM
same,GI50,NCI-H226 lung,> 25 µM
same,TGI,NCI-H226 lung,> 25 µM
same,GI50,CCRF-CEM leukemia,> 25 µM
same,TGI,CCRF-CEM leukemia,> 25 µM
same,GI50,SF-268 CNS,> 25 µM
same,TGI,SF-268 CNS,> 25 µM
same,GI50,786-0 renal,> 25 µM
same,TGI,786-0 renal,> 25 µM
same,GI50,CAKI-1 renal,> 25 µM
same,TGI,CAKI-1 renal,> 25 µM
same,GI50,RXF 393 renal,> 25 µM
same,TGI,RXF 393 renal,> 25 µM
same,GI50,SN12C renal,> 25 µM
same,TGI,SN12C renal,> 25 µM
same,GI50,UO-31 renal,> 25 µM
same,TGI,UO-31 renal,> 25 µM
same,GI50,UACC-62 melanoma,> 25 µM
same,TGI,UACC-62 melanoma,> 25 µM
same,GI50,UACC-257 melanoma,> 25 µM
same,TGI,UACC-257 melanoma,> 25 µM
same,GI50,ACHN renal,> 25 µM
same,TGI,ACHN renal,> 25 µM
same,GI50,IGROV1 ovarian,> 25 µM
same,TGI,IGROV1 ovarian,> 25 µM
same,GI50,NCI/ADR-RES ovarian,> 25 µM
same,TGI,NCI/ADR-RES ovarian,> 25 µM
same,GI50,A498 renal,> 19.6 µM
same,TGI,A498 renal,> 25 µM
same,GI50,BT-549 breast,> 25 µM
same,TGI,BT-549 breast,> 25 µM
same,GI50,HOP-92 NSCLC,> 25 µM
same,TGI,HOP-92 NSCLC,> 25 µM
same,GI50,SNB-75 CNS,> 9.68 µM
same,TGI,SNB-75 CNS,> 25 µM
same,GI50,SK-OV-3 ovarian,> 25 µM
same,TGI,SK-OV-3 ovarian,> 25 µM
same,GI50,RPMI-8226 leukemia,> 25 µM
same,TGI,RPMI-8226 leukemia,> 25 µM
same,GI50,U251 CNS,> 25 µM
same,TGI,U251 CNS,> 25 µM
same,GI50,COLO 205 colon,> 23.7 µM
same,TGI,COLO 205 colon,> 25 µM
same,GI50,T-47D breast,> 25 µM
same,TGI,T-47D breast,> 25 µM
same,GI50,HS 578T breast,20.5 µM
same,TGI,HS 578T breast,> 25 µM
same,GI50,MCF7 breast,> 25 µM
same,TGI,MCF7 breast,> 25 µM
same,GI50,KM12 colon,> 25 µM
same,TGI,KM12 colon,> 25 µM
same,GI50,HL-60(TB) leukemia,> 25 µM
same,TGI,HL-60(TB) leukemia,> 25 µM
same,GI50,DU-145 prostate,> 25 µM
same,TGI,DU-145 prostate,> 25 µM
same,GI50,TK-10 renal,> 25 µM
same,TGI,TK-10 renal,> 25 µM
same,GI50,OVCAR-4 ovarian,> 25 µM
same,TGI,OVCAR-4 ovarian,> 25 µM
same,GI50,SF-295 CNS,> 25 µM
same,TGI,SF-295 CNS,> 25 µM
same,GI50,MDA-MB-231 breast,> 25 µM
same,TGI,MDA-MB-231 breast,> 25 µM
same,GI50,LOX IMVI melanoma,> 25 µM
same,TGI,LOX IMVI melanoma,> 25 µM
